Data taken from the NIST ThermoML archive (doi:10.1021/je049867t).
± gives the expanded uncertainty stated by the source.

How the values were obtained:
[1] = refractive index (Na D-line) (dimensionless); details: 293.15 K; 101.33 kPa; Liquid; Standard Abbe refractometry
[2] = Liquid
[3] = 308.15 K, Ebulliometric method (Recirculating still)
[4] = 318.15 K, Ebulliometric method (Recirculating still)
[5] = 323.15 K, Ebulliometric method (Recirculating still)

| Compound | refractive index [1] | vapor or sublimation pressure [2, 3] [kPa] | vapor or sublimation pressure [2, 4] [kPa] | vapor or sublimation pressure [2, 5] [kPa] | vapor or sublimation pressure ([2]; 298.02 K) [kPa] | vapor or sublimation pressure ([2]; 306.98 K) [kPa] | vapor or sublimation pressure ([2]; 318.15 K) [kPa] | vapor or sublimation pressure ([2]; 319.2 K) [kPa] | vapor or sublimation pressure ([2]; 327.9 K) [kPa] | vapor or sublimation pressure ([2]; 334.78 K) [kPa] | vapor or sublimation pressure ([2]; 340.52 K) [kPa] | vapor or sublimation pressure ([2]; 345.48 K) [kPa] | vapor or sublimation pressure ([2]; 349.85 K) [kPa] | vapor or sublimation pressure ([2]; 353.81 K) [kPa] | vapor or sublimation pressure ([2]; 355.64 K) [kPa] |
| --- | --- | --- | --- | --- | --- | --- | --- | --- | --- | --- | --- | --- | --- | --- | --- |
| Cc1ccccc1 [toluene] | 1.4965 ± 0.0007 | 6.18 ± 0.1 | 9.88 ± 0.1 | 12.28 ± 0.1 | – | – | – | – | – | – | – | – | – | – | – |
| COC(C)(C)C [2-methoxy-2-methylpropane] | 1.3698 ± 0.0007 | 49.48 ± 0.15 | 71.41 ± 0.17 | 84.91 ± 0.18 | – | – | – | – | – | – | – | – | – | – | – |
| CCC(C)(C)OC [2-methoxy-2-methylbutane] | 1.3862 ± 0.0009 | – | – | – | 10 ± 0.09 | 15 ± 0.1 | 23.99 ± 0.19 | 25 ± 0.13 | 35 ± 0.15 | 45 ± 0.18 | 55 ± 0.21 | 65 ± 0.24 | 75 ± 0.27 | 85 ± 0.3 | 90 ± 0.32 |
